Reference: US20220023271A1, “COMPOSITION FOR PREVENTING OR TREATING CELLULAR SENESCENCE-RELATED DISEASES COMPRISING ZOTAROLIMUS AS ACTIVE INGREDIENT” (RESEARCH COOPERATION FOUNDATION OF YEUNGNAM UNIVERSITY, priority 2018, published 2022)

Tested on: human dermal fibroblasts (HDF)
Test: LDH activity in cell culture solution of human fibroblasts
Type: cell-based
Conditions: young and replicative senescent fibroblasts; 4 days
Description: Cytotoxicity against young and senescent cells was investigated with a lactate dehydrogenase (LDH) activity kit (Dojindo Molecular Technologies Inc.).
Young cells (1×10^3 cells/100 μl/well) or senescent cells (2×10^3 cells/100 μl/well) were dispensed into a 96-well plate, and then cultured overnight in a 37° C., 5% CO2 incubator. Zotarolimus and ABT263 were treated at each concentration, and then incubated for 4 days in a 37° C., 5% CO2 incubator.
After transferring the cell culture solution to a 1.5 ml tube, it was centrifuged at 4° C. and 12,000 rpm. 100 μl of the supernatant was dispensed into a 96-well plate, and 100 μl of the LDH measurement solution was added to each well, followed by reaction in a CO2 incubator for 30 minutes.
50 μl of the LDH reaction stop solution was added, and absorbance was measured at 490 nm using a microplate reader. The level of LDH activity was expressed as a relative value based on the absorbance of the control group treated with only DMSO.
From the above results, in order to confirm whether the decrease in cell growth caused by zotarolimus was due to cell death or simply because the growth stopped, LDH activity was investigated in the cell culture solution.

## CO[C@H]1C[C@@H]2CC[C@@H](C)[C@@](O)(O2)C(=O)C(=O)N2CCCC[C@H]2C(=O)O[C@H]([C@H](C)C[C@@H]2CC[C@H](n3cnnn3)[C@H](OC)C2)CC(=O)[C@H](C)/C=C(\C)[C@@H](O)[C@@H](OC)C(=O)[C@H](C)C[C@H](C)/C=C/C=C/C=C/1C [zotarolimus]
  LDH activity in the cell culture medium: no difference in LDH activity
